Where “and” joins values, the source holds several entries; their conditions need not be identical. Equal entries are not always repeated. Numbers after ± are expanded uncertainties.
Assays:
[1] = activity coefficient (dimensionless); of the first substance listed, at infinite dilution; xn = mol fraction of the nth substance listed; settings: 101.3 kPa, Liquid, x1 = 0
[2] = 101.33 kPa, Liquid, Vibrating tube method
[3] = 313 K, Open tubular Wall-Coated Column Chromatography
[4] = 333 K, Open tubular Wall-Coated Column Chromatography
[5] = 353 K, Open tubular Wall-Coated Column Chromatography
[6] = 373 K, Open tubular Wall-Coated Column Chromatography
[7] = 393 K, Open tubular Wall-Coated Column Chromatography
[8] = 413 K, Open tubular Wall-Coated Column Chromatography
[9] = 313 K, open tubular wall-coated column chromatography
[10] = 333 K, open tubular wall-coated column chromatography
[11] = 353 K, open tubular wall-coated column chromatography
[12] = 373 K, open tubular wall-coated column chromatography
[13] = 383 K, open tubular wall-coated column chromatography
[14] = 393 K, open tubular wall-coated column chromatography
[15] = 403 K, open tubular wall-coated column chromatography
[16] = 413 K, open tubular wall-coated column chromatography

In the case of `CCCCCCC` [heptane] + CC(=O)[O-].CCn1cc[n+](C)c1, the activity coefficient [1, 3] is reported as 121 ± 12, the activity coefficient [1, 4] is reported as 146 ± 15 and the activity coefficient [1, 5] is reported as 157 ± 16. It also gave an activity coefficient [1, 6] of 173 ± 17.

Compound `CCC(C)(C)O` [2-methylbutan-2-ol] + CC(=O)[O-].CCn1cc[n+](C)c1 has an activity coefficient [1, 5] of 0.29 ± 0.03, an activity coefficient [1, 6] of 0.35 ± 0.04 and an activity coefficient [1, 7] of 0.42 ± 0.04. The activity coefficient [1, 8] was 0.49 ± 0.05.

With `CCCO` [propan-1-ol] + CC(=O)[O-].CCn1cc[n+](C)c1 the activity coefficient [1, 3] was 0.06 ± 0.01, the activity coefficient [1, 4] was 0.07 ± 0.01 and the activity coefficient [1, 5] was 0.09 ± 0.01. The activity coefficient [1, 6] was 0.1 ± 0.01, the activity coefficient [1, 7] was 0.11 ± 0.01 and the activity coefficient [1, 8] was 0.13 ± 0.01.

`C[N+](=O)[O-]` [nitromethane] + CC(=O)[O-].CCn1cc[n+](C)c1 gave an activity coefficient [1, 5] of 0.44 ± 0.04, an activity coefficient [1, 6] of 0.46 ± 0.05 and an activity coefficient [1, 7] of 0.46 ± 0.05.

Work on `CC(C)(C)O` [2-methylpropan-2-ol] + CC(=O)[O-].CCn1cc[n+](C)c1 yielded an activity coefficient [1, 3] of 0.16 ± 0.02, an activity coefficient [1, 4] of 0.18 ± 0.02 and an activity coefficient [1, 5] of 0.22 ± 0.02. For the same compound, the activity coefficient [1, 6] was 0.27 ± 0.03, the activity coefficient [1, 7] was 0.3 ± 0.03 and the activity coefficient [1, 8] was 0.37 ± 0.04.

For `C1CCOC1` [tetrahydrofuran] + CC(=O)[O-].CCn1cc[n+](C)c1, the activity coefficient [1, 9] was 3.22 ± 0.32, the activity coefficient ([1]; 333 K, Chromatography) was 3.91 and 3.36 and the activity coefficient [1, 10] was 3.49 ± 0.35. The activity coefficient ([1]; 353 K, Chromatography) was 3.92 and 3.37, the activity coefficient [1, 11] was 3.63 ± 0.36 and the activity coefficient ([1]; 373 K, Chromatography) was 3.68 and 3.5. The activity coefficient [1, 12] was 3.67 ± 0.37, the activity coefficient [1, 13] was 3.94 ± 0.4 and the activity coefficient ([1]; 393 K, Chromatography) was 3.88 and 3.35. For the same compound, the activity coefficient [1, 14] was 4.02 ± 0.4, the activity coefficient ([1]; 403 K, Chromatography) was 4.02 and 3.55 and the activity coefficient [1, 15] was 4 ± 0.4. For the same compound, the activity coefficient ([1]; 413 K, Chromatography) was 4.13 and 3.9.

With `CCCCCC` [hexane] + CC(=O)[O-].CCn1cc[n+](C)c1 the activity coefficient ([1]; 313 K, Chromatography) was 86.4 and 90.5, the activity coefficient [1, 9] was 86.5 ± 8.7 and the activity coefficient ([1]; 333 K, Chromatography) was 82.4 and 80.7. The activity coefficient [1, 10] was 80 ± 8, the activity coefficient ([1]; 353 K, Chromatography) was 65.9 and 71.3 and the activity coefficient [1, 11] was 70.6 ± 7.1. The activity coefficient ([1]; 373 K, Chromatography) was 66.1 and 72.7, the activity coefficient ([1]; 393 K, Chromatography) was 58.8 and 55.3 and the activity coefficient ([1]; 413 K, Chromatography) was 91.2 and 66.5.

In the case of `CCOC(C)=O` [ethyl acetate] + CC(=O)[O-].CCn1cc[n+](C)c1, the activity coefficient [1, 9] is reported as 4.41 ± 0.44, the activity coefficient ([1]; 333 K, Chromatography) is reported as 5.41 and 4.67 and the activity coefficient [1, 10] is reported as 4.77 ± 0.48. For the same compound, the activity coefficient ([1]; 353 K, Chromatography) was 5.48 and 4.72, the activity coefficient [1, 11] was 5.24 ± 0.53 and the activity coefficient ([1]; 373 K, Chromatography) was 5.24 and 4.67. For the same compound, the activity coefficient [1, 12] was 5.62 ± 0.56, the activity coefficient ([1]; 393 K, Chromatography) was 5.29 and 4.76 and the activity coefficient [1, 14] was 5.35 ± 0.54. The activity coefficient ([1]; 403 K, Chromatography) was 5.47 and 5.05, the activity coefficient [1, 15] was 5.32 ± 0.53 and the activity coefficient ([1]; 413 K, Chromatography) was 5.44 and 5.11.

For `C1CCCCC1` [cyclohexane] + CC(=O)[O-].CCn1cc[n+](C)c1, the activity coefficient ([1]; 313 K, Chromatography) was 36.2 and 35.5, the activity coefficient [1, 9] was 31.8 ± 3.2 and the activity coefficient ([1]; 333 K, Chromatography) was 30.9 and 31.6. For the same compound, the activity coefficient [1, 10] was 31.5 ± 3.2, the activity coefficient ([1]; 353 K, Chromatography) was 27.3 and 29.1 and the activity coefficient [1, 11] was 32.8 ± 3.3. For the same compound, the activity coefficient ([1]; 373 K, Chromatography) was 27.4 and 29.3, the activity coefficient ([1]; 383 K, Chromatography) was 26.9 and 25.6 and the activity coefficient ([1]; 393 K, Chromatography) was 26.5 and 28.9. For the same compound, the activity coefficient [1, 14] was 30.3 ± 3 and the activity coefficient ([1]; 413 K, Chromatography) was 24.8 and 24.3.

With `C1COCCO1` [1,4-dioxane] + CC(=O)[O-].CCn1cc[n+](C)c1 the activity coefficient [1, 10] was 2.29 ± 0.23, the activity coefficient [1, 11] was 2.28 ± 0.23 and the activity coefficient ([1]; 373 K, Chromatography) was 2.56 and 2.43. For the same compound, the activity coefficient [1, 12] was 2.39 ± 0.24, the activity coefficient ([1]; 393 K, Chromatography) was 2.63 and 2.32 and the activity coefficient [1, 14] was 2.52 ± 0.25. For the same compound, the activity coefficient ([1]; 403 K, Chromatography) was 2.75 and 2.44, the activity coefficient [1, 15] was 2.67 ± 0.27 and the activity coefficient ([1]; 413 K, Chromatography) was 2.77 and 2.46. For the same compound, the activity coefficient [1, 16] was 2.58 ± 0.26.

In the case of `COCCOC` [1,2-dimethoxyethane] + CC(=O)[O-].CCn1cc[n+](C)c1, the activity coefficient [1, 3] is reported as 3.56 ± 0.36, the activity coefficient [1, 4] is reported as 3.88 ± 0.39 and the activity coefficient [1, 5] is reported as 4.11 ± 0.41. The activity coefficient [1, 6] was 4.51 ± 0.45 and the activity coefficient [1, 7] was 4.81 ± 0.48.

Work on `CC#N` [acetonitrile] + CC(=O)[O-].CCn1cc[n+](C)c1 yielded an activity coefficient [1, 10] of 0.76 ± 0.08, an activity coefficient [1, 11] of 0.77 ± 0.08 and an activity coefficient ([1]; 373 K, Chromatography) of 0.82 ± 0.05. For the same compound, the activity coefficient [1, 12] was 0.86 ± 0.09, the activity coefficient ([1]; 383 K, Chromatography) was 0.85 and 0.88 and the activity coefficient [1, 13] was 0.91 ± 0.09. For the same compound, the activity coefficient ([1]; 393 K, Chromatography) was 0.87 ± 0.06, the activity coefficient [1, 14] was 0.89 ± 0.09 and the activity coefficient [1, 15] was 1.21 ± 0.14.

For `Cc1ccccc1` [toluene] + CC(=O)[O-].CCn1cc[n+](C)c1, the activity coefficient [1, 9] was 5.01 ± 0.5, the activity coefficient [1, 10] was 5.41 ± 0.54 and the activity coefficient [1, 11] was 5.76 ± 0.58. The activity coefficient ([1]; 363 K, Chromatography) was 6.07 and 6.21, the activity coefficient ([1]; 363 K, open tubular wall-coated column chromatography) was 5.81 ± 0.58 and the activity coefficient ([1]; 373 K, Chromatography) was 6.08 and 5.92. For the same compound, the activity coefficient [1, 12] was 5.88 ± 0.59, the activity coefficient ([1]; 383 K, Chromatography) was 6.12 and 6.03 and the activity coefficient [1, 13] was 6.03 ± 0.6. The activity coefficient ([1]; 393 K, Chromatography) was 6.23 and 5.87, the activity coefficient [1, 14] was 6.13 ± 0.61 and the activity coefficient ([1]; 403 K, Chromatography) was 6.28 and 6.04. The activity coefficient [1, 15] was 6.47 ± 0.65, the activity coefficient ([1]; 413 K, Chromatography) was 7.11 and 6.37 and the activity coefficient [1, 16] was 6.55 ± 0.66.

For `c1ccccc1` [benzene] + CC(=O)[O-].CCn1cc[n+](C)c1, the activity coefficient [1, 9] was 2.8 ± 0.28, the activity coefficient [1, 10] was 3.06 ± 0.31 and the activity coefficient ([1]; 353 K, Chromatography) was 3.41 and 3.39. For the same compound, the activity coefficient [1, 11] was 3.43 ± 0.34, the activity coefficient ([1]; 373 K, Chromatography) was 3.45 and 3.31 and the activity coefficient [1, 12] was 3.44 ± 0.34. For the same compound, the activity coefficient ([1]; 383 K, Chromatography) was 3.49 and 3.62, the activity coefficient [1, 13] was 3.49 ± 0.35 and the activity coefficient ([1]; 393 K, Chromatography) was 3.52 and 3.45. For the same compound, the activity coefficient [1, 14] was 3.68 ± 0.37, the activity coefficient ([1]; 403 K, Chromatography) was 4.15 and 3.67 and the activity coefficient [1, 15] was 3.91 ± 0.4. The activity coefficient ([1]; 413 K, Chromatography) was 4.1 and 4.11 and the activity coefficient [1, 16] was 4.28 ± 0.43.

With `C=CCCCC` [hex-1-ene] + CC(=O)[O-].CCn1cc[n+](C)c1 the activity coefficient ([1]; 313 K, Chromatography) was 37.8 and 39, the activity coefficient [1, 9] was 36 ± 3.6 and the activity coefficient ([1]; 333 K, Chromatography) was 34.7 and 35.5. The activity coefficient [1, 10] was 35.1 ± 3.5, the activity coefficient ([1]; 353 K, Chromatography) was 31.3 and 34.8 and the activity coefficient ([1]; 373 K, Chromatography) was 31 and 33.4. The activity coefficient ([1]; 393 K, Chromatography) was 30.6 and 30.1 and the activity coefficient ([1]; 413 K, Chromatography) was 25 and 27.

`CC(=O)[O-].CCn1cc[n+](C)c1` [1-ethyl-3-methylimidazolium acetate] gave a mass density ([2]; 293.15 K) of 1100.87 ± 0.31 kg/m3, a mass density ([2]; 298.15 K) of 1097.83 ± 0.31 kg/m3 and a mass density ([2]; 303.15 K) of 1094.77 ± 0.31 kg/m3. It also gave a mass density ([2]; 308.15 K) of 1091.71 ± 0.3 kg/m3, a mass density ([2]; 313.15 K) of 1088.65 ± 0.3 kg/m3 and a mass density ([2]; 318.15 K) of 1085.61 ± 0.3 kg/m3. It also gave a mass density ([2]; 323.15 K) of 1082.57 ± 0.3 kg/m3, a mass density ([2]; 328.15 K) of 1079.55 ± 0.29 kg/m3 and a mass density ([2]; 333.15 K) of 1076.54 ± 0.29 kg/m3. It also gave a mass density ([2]; 338.15 K) of 1073.54 ± 0.29 kg/m3, a mass density ([2]; 343.15 K) of 1070.55 ± 0.29 kg/m3 and a mass density ([2]; 348.15 K) of 1067.58 ± 0.28 kg/m3. For the same compound, the mass density ([2]; 353.15 K) was 1064.61 ± 0.28 kg/m3 and the mass density ([2]; 358.15 K) was 1061.65 ± 0.28 kg/m3.

With `CC(C)O` [propan-2-ol] + CC(=O)[O-].CCn1cc[n+](C)c1 the activity coefficient [1, 3] was 0.08 ± 0.01, the activity coefficient [1, 4] was 0.11 ± 0.01 and the activity coefficient [1, 5] was 0.13 ± 0.01. It also gave an activity coefficient [1, 6] of 0.15 ± 0.02, an activity coefficient [1, 7] of 0.16 ± 0.02 and an activity coefficient [1, 8] of 0.19 ± 0.02.
